Assay results: patent publication US9260759B2, “Pyrazoloanthrone and derivatives thereof for the treatment of cancers expressing MISRII” (The General Hospital Corporation, priority 2007, dated 2016)
Changes are numbered by the printed parent chain. Like-named read-outs stand apart in the source and are kept apart here.

Legend:
rat MISRII = molecular target: T1, rat MISRII (Rattus norvegicus, UniProt Q62893); test: BRE-luciferase reporter assay in COS7 cells transfected with MISRII; format: cell-based
T1 construct: expressed in transfected cells; host or cells: COS7
T1 sequence (Q62893 18-557): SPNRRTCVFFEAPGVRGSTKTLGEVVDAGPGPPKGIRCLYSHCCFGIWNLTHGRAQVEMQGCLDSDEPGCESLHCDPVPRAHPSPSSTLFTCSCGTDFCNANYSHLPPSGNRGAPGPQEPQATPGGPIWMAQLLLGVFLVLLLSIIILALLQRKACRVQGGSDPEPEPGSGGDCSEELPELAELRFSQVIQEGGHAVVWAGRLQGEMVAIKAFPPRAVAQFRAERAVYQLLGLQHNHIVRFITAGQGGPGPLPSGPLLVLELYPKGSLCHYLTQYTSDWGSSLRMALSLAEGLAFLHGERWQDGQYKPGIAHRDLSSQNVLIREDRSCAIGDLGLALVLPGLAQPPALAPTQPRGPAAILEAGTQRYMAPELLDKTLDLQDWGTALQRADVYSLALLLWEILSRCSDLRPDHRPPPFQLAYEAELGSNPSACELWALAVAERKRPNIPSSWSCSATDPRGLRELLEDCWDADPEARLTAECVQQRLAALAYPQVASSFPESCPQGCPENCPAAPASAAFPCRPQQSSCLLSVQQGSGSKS
Description: COS7 cells were transiently transfected with MISRH, BRE-Luciferase and phRL-CMV. […] Control cells were transfected with a control plasmid (EGFP-N1 plasmid) instead of the receptor plasmid to keep the total DNA transfected constant. The results shown are the fold-induction over vehicle treated cells and normalized to phRL-CMV expression to correct for variations in cell number and transfection efficiency. […] The results represent the mean values from three independent experiments performed in triplicates (Error bars represent SEM, *p<0.05, **p<0.001).
To identify molecules that interact with the MISRII, we developed a reporter assay where binding to MISRII activates a firefly luciferase reporter driven by the BMP-responsive element (BRE) promoter kindly provided by Dr. Peter ten Dijke (The Netherlands Cancer Institute, The Netherlands) The BMP promoter region on mouse M. mus is located on chromosome 2 (Chr2) and corresponds to RefSeq No: NT—039207.6 93504644-93506272 (SEQ ID NO:1). The BRE-luciferase reporter (Korchynskyi and ten Dijke, 2002, Logeart-Avramoglou, 2006) has multiple optimized BMP response elements (3 SBE, 7 GC, and 4 CAGC) driving the expression of the firefly luciferase. This reporter construct together with a control Renilla luciferase reporter phRL-CMV (Promega, Madison Wis.) and a rat MISRII cDNA expression construct (Teixeira, 1996) were transiently transfected into COST cells and plated in 384 well plates. Primary screens were performed at the Harvard Institute of Chemistry and Cell Biology screening facility. Compounds from chosen libraries were added at a volume of 100 nl at 5 mg/ml concentration in DMSO into 30 μl cell media and cultured for 24 h at 37° C., after which the luciferase activity was measured with reagents from Promega according to the manufacturer's instructions. A hit was identified as causing a fold induction over the plate median and each compound was tested in duplicate in separate plates. MIS was used to control for intra- and inter-assay variability.
COS7 cells were plated at a density of 5000 cells/well in 96-well plates for secondary screens. The day after plating cells were transfected with rat MISRII receptor or EGFP-N1 (Clontech, Mountain View Calif.) together with BRE firefly luciferase reporter construct and phRL-CMV using TransIT-LT1 transfection reagent (Mirus Bio Corporation, Madison Wis.). […] Results were obtained using the Dual Luciferase reporter assay according to the manufacturer's instructions (Promega). Plates were read in a Wallac Victor2 luminometer (PerkinElmer, Wellesley Mass.).

c-jun = test: Western blot of anisomycin-induced c-jun phosphorylation in MOVCAR cells; format: cell-based, mouse
Protocol: (§1) The results are representative of several experiments.
(§2) Cells were washed in PBS and lysates were prepared in 1× Passive lysis buffer (PLB) provided with the Dual luciferase reporter assay kit (Promega). The lysates were cleared by centrifugation and the protein concentration was determined by Bradford assay (Bio-Rad, Hercules Calif.). […] of protein were loaded onto a NuPAGE 4-12% Bis-Tris gradient gel with MOPS-buffer (Invitrogen, Carlsbad Calif.) for polyacrylamide gel electrophoresis. Following transfer to a nitrocellulose by electroblotting, the membrane was blocked in 5% milk Tris-buffered saline/Tween20 (TBS-T) for 1 h at room temperature and incubated with primary antibody (pJNK, c-jun and phosph c-jun antibodies were purchased from Cell Signalling, Danvers, Mass.; amd JNK antibody was published from Santa Cruz Biotechnology, Calif.) overnight at 4° C. in 5% BSA followed by incubation with secondary horseradish peroxidase conjugated anti-rabbit antibody (Jackson ImmunoResearch, Westgrove Pa.) for 1 h. Immunoreactive proteins were detected by enhanced chemiluminescence (Pierce, Rockford Ill.). Anisomycin was purchased from Calbiochem.
(§3) The known Jun kinase activator anisomycin was used as a positive control (Hazzalin, 1998). […] Further, MIS had no effect on phosphorylation of JNK by anisomycin.

JNK = test: Immunoblot of JNK phosphorylation in MOVCAR7 cells; format: cell-based, mouse
Protocol: as §1, §2, §3

MOVCAR7 cells = test: MTT proliferation assay, MOVCAR7 cells; format: cell-based; conditions: Mus musculus, 168 h
Protocol: Cells were plated in 96-well plates and treated the day after. Seven days after plating the cell survival was measured using 3-(4,5-dimethylthiazol-2-yl)-2,5-diphenyltetrazolium bromide substrate and measuring the absorbance at 550 nm.
(Connolly, 2003). The 4306 cells were provided by Dr. Daniela Dinulescu, Brigham and Women's (Boston) (30). Cells were plated at a density of 1000 cells/well in 96-well plates and treated 24 h later. The cell proliferation was measured after 7 days by registering the absorbance at 550 nm. Paclitaxel was manufactured by Ivax Pharmaceuticals and obtained from the MGH pharmacy.
The cells were treated for 7 days and the proliferation was measured by spectrophotometry. To exclude cytotoxic effects on the cells unrelated to MIS signal transduction, we used untransfected COS7 cells as a negative control. […] Paclitaxel is used in treatment of a wide range of tumors, but the side effects can be debilitating (Pieretti-Vanmarcke, 2006a, Pieretti-Vanmarcke, 2006b).

MISRIIK228R = molecular target: T2, MISRIIK228R (Rattus norvegicus, UniProt Q62893, K228R); test: BRE-luciferase reporter assay in COS7 cells with kinase-deficient receptor MISRIIK228R; format: cell-based; conditions: K228R receptor overexpressed, COS7, 24 hrs, agent alone
T2 construct: expressed in transfected cells; host or cells: COS7
T2 sequence (Q62893 18-557 K228R): T1 sequence (Q62893 18-557) with K211R
Description: Results shown represent the mean values from four independent experiments performed in triplicates (Error bars represent standard error of the mean, *, P<0.05).

endogenous MISRII = molecular target: T3, endogenous MISRII (Mus musculus, UniProt Q8K592); test: BRE-luciferase reporter assay in MOVCAR7 cells expressing endogenous MISRII; format: cell-based; conditions: 5 μg/ml MIS, MOVCAR7, 24 h
T3 construct: a mouse ovarian cancer cell line, MOVCAR7, that expresses endogenous MISRII; endogenous in cells; host or cells: MOVCAR7 (mouse ovarian cancer cell line)
T3 sequence (Q8K592 16-568): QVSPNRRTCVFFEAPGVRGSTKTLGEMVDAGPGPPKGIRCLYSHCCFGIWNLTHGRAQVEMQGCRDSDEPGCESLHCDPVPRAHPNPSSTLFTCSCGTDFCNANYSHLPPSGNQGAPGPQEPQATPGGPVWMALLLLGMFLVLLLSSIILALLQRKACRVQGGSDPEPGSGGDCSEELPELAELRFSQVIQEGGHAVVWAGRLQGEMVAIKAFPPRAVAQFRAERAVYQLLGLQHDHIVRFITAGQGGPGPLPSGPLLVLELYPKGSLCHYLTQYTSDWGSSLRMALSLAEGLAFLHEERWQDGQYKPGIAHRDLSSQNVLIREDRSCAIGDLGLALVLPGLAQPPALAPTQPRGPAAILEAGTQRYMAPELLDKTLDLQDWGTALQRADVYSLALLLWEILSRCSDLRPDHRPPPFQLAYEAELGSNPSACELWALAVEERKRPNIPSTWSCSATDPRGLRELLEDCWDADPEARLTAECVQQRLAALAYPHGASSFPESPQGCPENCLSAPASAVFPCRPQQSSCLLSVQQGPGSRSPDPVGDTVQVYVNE

Molecule: CCOc1nc(NC(=O)Cc2cc(OC)ccc2OC)cc(N)c1C#N [JNK inhibitor VIII, reference compound]
- effect on BRE-luciferase when combined with MIS (rat MISRII; JNK inhibitor VIII 5, 25 or 50 μM with MIS): no further effect
- activation of BRE-luciferase (rat MISRII; JNK inhibitor VIII at 5, 25 or 50 μM alone, COS7): did not result in any activation
- inhibiting phosphorylation of c-jun, compared with SP600125 (c-jun): much more effective
- c-jun phosphorylation induced by 500 nM anisomycin (c-jun; pre-treatment 25 uM): inhibited

Molecule: COc1ccc(C[C@H]2NC[C@H](O)[C@H]2OC(C)=O)cc1 [anisomycin, reference compound]
- phosphorylation of JNK (positive control) (JNK; 500 nM anisomycin, 30 min): strong activation

Molecule: CC(=O)O[C@H]1C(=O)[C@@]2(C)[C@H]([C@H](OC(=O)c3ccccc3)[C@]3(O)C[C@H](OC(=O)[C@H](O)[C@@H](NC(=O)c4ccccc4)c4ccccc4)C(C)=C1C3(C)C)[C@]1(OC(C)=O)CO[C@@H]1C[C@@H]2O [paclitaxel]
- IC50 (MOVCAR7 cells; read-out: IC50 of paclitaxel combined with SP600125): 210 pM
- IC50 (MOVCAR7 cells; MOVCAR7, 7 days, MTT, read-out: IC50 of paclitaxel alone): 810 pM

B1: MIS: Recombinant human MIS prepared from Chinese hamster ovary cells stably transfected with the human MIS gene (protein)
chain: LRAEEPAVGTSGLIFREDLDWPPGSPQEPLCLVALGGDSNGSSSPLRVVGALSAYEQAFLGAVQRARWGPRDLATFGVCNTGDRQAALPSLRRLGAWLRDPGGQRLVVLHLEEVTWEPTPSLRFQEPPPGGAGPPELALLVLYPGPGPEVTVTRAGLPGAQSLCPSRDTRYLVLAVDRPAGAWRGSGLALTLQPRGEDSRLSTARLQALLFGDDHRCFTRMTPALLLLPRSEPAPLPAHGQLDTVPFPPPRPSAELEESPPSADPFLETLTRLVRALRVPPARASAPRLALDPDALAGFPQGLVNLSDPAALERLLDGEEPLLLLLRPTAATTGDPAPLHDPTSAPWATALARRVAAELQAAAAELRSLPGLPPATAPLLARLLALCPGGPGGLGDPLRALLLLKALQGLRVEWRGRDPRGPGRAQRSAGATAADGPCALRELSVDLRAERSVLIPETYQANNCQGVCGWPQSDRNPRYGNHVVLLLKMQVRGAALARPPCCVPTAYAGKLLISLSEERISAHHVPNMVATECGCR
- BRE-luciferase expression, fold induction (rat MISRII; MIS 0.5 ug/ml alone, MISRII-transfected COS7, 24 h): greater than ten-fold
- activation of BRE-luciferase with kinase-deficient receptor (MISRIIK228R): neither MIS nor SP600125 activates BRE-luciferase
- increase of BRE activity compared to untreated cells (endogenous MISRII): 2 fold
- phosphorylation of JNK (JNK; 5 μg/ml MIS, 30 min): no phosphorylation beyond background
- effect of MIS on phosphorylation of JNK by anisomycin (JNK; MIS with anisomycin): no effect
